{
  "source": "paper PMC6934184",
  "about": "“Selective DNA-PKcs inhibition extends the therapeutic index of localized radiotherapy and chemotherapy” (The Journal of Clinical Investigation, 2019)",
  "tested_on": "FLT3 ITD",
  "test": "SelectScreen LanthaScreen",
  "assay_type": "binding",
  "details": "1 µM",
  "summary_of_the_method": "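SelectScreen broad panel; activity (Z'LYTE, Adapta) plus binding formats. ATP: Km app for CSF1R Z'LYTE; 10 for CAMK1 Adapta. Readout = % per kinase.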",
  "data": [
    {"smiles": "CN(C(=O)CN1CCOCC1)c1ccc2sc3c(-c4cccc5c(=O)cc(N6CC7CCC(C6)O7)oc45)cccc3c2c1", "note": "[NU5455]", "values": [
      {"measurement": "% displacement", "value": -11.6, "unit": "%"}
    ]}
  ]
}
